Results as given in PMC7345095, “New Synthetic Nitro-Pyrrolomycins as Promising Antibacterial and Anticancer Agents” (Antibiotics, 2020).
In brackets after ≈: the same amount, converted by molar mass. Read-outs that look alike come from different tables or passages of the source.

Key:
S. aureus = assay: MIC by absorbance at 600 nm after overnight challenge; type: cell-based; conditions: Staphylococcus aureus, LB medium, absorbance 600 nm
Description: (§1) Kill curve assays were performed to test the antimicrobial efficacy of pyrrolomycins (i.e., 1, 2, 5a, 5b, 5c, 5d), as well as that of the natural PM-C against the indicator pathogen Staphylococcus aureus ATCC 25923 and Pseudomonas aeruginosa ATCC 10145 strains. Briefly, a single colony of either S. aureus or P. aeruginosa strains was picked up and pre-cultivated (ca. 16 h) at 37 °C with shacking (160 rpm) in Luria Bertani medium (hereinafter named as LB and composed of (g L^−1): sodium chloride, 10; yeast extract, 5; tryptone, 10). The same medium was solidified by adding 15 g L^−1 of bacteriological agar when needed. Bacterial cells were then inoculated (1% v/v) in LB medium amended with increasing concentrations—ranging from 0 to 100 μM as initial concentration—of each pyrrolomycin tested, challenging the cultures for 24 h and incubating them as reported above. The actual number of viable colony forming units per milliliter of culture (CFU mL^−1) of each bacterial strain, who survived the challenge exerted by pyrrolomycins, was evaluated through the spot plate count method and compared to unchallenged cultures, as reported elsewhere. The data are reported as average values (n = 3) of CFU mL^−1 in the logarithmic (Log10) scale with standard deviation (SD). Evaluation of the MIC of PM-5c, and -5d against S. aureus and of PM-5d against P. aeruginosa was performed by incubating 1% (v/v) of an overnight bacterial suspension in LB medium in presence of increasing concentrations of the PMs. As a control, MIC of PM-C was measured. At the time of the inoculum and after overnight challenge, the absorbance of the cultures at 600 nm, which is an indirect way to measure the bacterial cell growth, was registered using a Spark™ 10 M multimode microplate reader measuring. The experiment was carried out in triplicate, being the absorbance corrected by subtracting that of the culture medium amended with the corresponding PM tested.

P. aeruginosa = assay: as above; type: cell-based; conditions: Pseudomonas aeruginosa, LB medium, absorbance 600 nm
Description: as §1

[1] = test system: HCT116 and MCF 7 cancer cell lines; assay: MTT viability assay, statements over both cancer cell lines; type: cell-based
Description: (§2) The HCT116 colon cancer cell line (ATCC® CCL-247™), the MCF 7 breast cancer cell line (ATCC® HTB-22™) and the hTERT RPE-1 -immortalized retinal pigment epithelial cell line (ATCC® CRL-4000™) used in this study were cultured in DMEM medium (Gibco, Paisley, UK), supplemented with 1% glutamine, 10% heat-inactivated fetal bovine serum and 100U/mL penicillin and 100 μg/mL streptomycin, as already described, and maintained at 37 °C and 5% CO2.
(§3) Cells were plated at 5 × 10^3 cells/well in 96-well plates and incubated for 24 h prior to treatment for further 48 h of different concentrations of PMs. After incubation, a sample of 20 μL of Thiazolyl Blue Tetrazolium Bromide (5 mg mL^−1) in PBS was added to each well and cultured for 2h at 37 °C in CO2 incubator. After removing the medium containing MTT and three washes with PBS, 100 μL of warm DMSO was added to each well to dissolve formazan. Samples were shaken for 10 min, at room temperature in the dark, and the absorbance was recorded at 570 nm using a microplate reader (Spark® 20M Tecan Trading AG, Switzerland). Percentage of cell viability with respect to untreated control cells (vehicle control) was calculated after subtraction of the blank. The IC50 values, that is the concentration necessary to inhibit the 50% of cell growth, was calculated using a dose-response model, obtained from sigmoidal fitting of response curves of percent inhibition versus logarithmic concentration of PMs, using Graph Pad Prism software. Each result represents the mean value of three different experiments performed in triplicate.

[2] = test system: Staphylococcus aureus ATCC 25923; assay: Kill curve assay (MBC), planktonic cells; type: cell-based
Description: as §1

[3] = test system: Pseudomonas aeruginosa ATCC 10145; assay: Kill curve assay (MBC), planktonic cells; type: cell-based; conditions: for MBC: read-out: MBC P. aeruginosa
Description: as §1

[4] = test system: MCF 7 breast cancer cell line; assay: MTT viability assay; type: cell-based
Description: as §2, §3

[5] = test system: HCT116 colon cancer cell line; assay: MTT viability assay; type: cell-based
Description: as §2, §3

HCT116 cells [6] = assay: Morphological assessment, phase contrast inverted microscope; type: cell-based; conditions: 0.1 µM (sub-inhibitory), 24 h
Description: HCT116 cells were seeded in 24 well culture plates with a cell density of 1 × 10^5 cells/well. After 24 h cells were incubated for 24 h with different concentration of the selected PMs, and observed under a phase contrast inverted microscope (Carl Zeiss) at 200× magnification, for morphological changes assessment.

HCT116 cells [7] = assay: Acridine orange/ethidium bromide (AO/EB) staining; type: cell-based; conditions: treated at IC50 for 24 and 48 h
Source text: Cells were immediately observed under a fluorescent microscopy (Carl Zeiss) at 630 × magnification.

Escherichia coli = test system: Escherichia coli; set-up: method as in PMID 31405863, PMID 15730262; conditions: natural PMs; cited from earlier work
[8] = test system: hTERT RPE-1 immortalized retinal pigment epithelial cell line; assay: MTT viability assay (cytotoxicity on normal cells); type: cell-based; conditions: hTERT-RPE1, 48 h, read-out: IC50 hTERT-RPE-1
Description: as §2, §3

P. aeruginosa cells = assay: AO/EB double staining of bacterial cells; type: cell-based, Pseudomonas aeruginosa; conditions: 100 μM, 24 h
Description: It is noteworthy to highlight that the main difference between PM-C and 5d relies only on the presence of the nitro group in the position R3 of the latter, which is likely responsible for its enhanced electronegativity and, therefore, better biological reactivity over PM-C.
Figure 3 Fluorescence micrographs of P. aeruginosa cells treated for 24 h with 100 μM of PM-C or 10 μM of PM 5d after AO/EB double staining. Control represents untreated cells. Green (AO) are viable cells, red (EB) dead cells, and orange vital cells with damaged membranes.

In the case of `O=C(c1cc(Cl)c(Cl)[nH]1)c1cc(Cl)cc(Cl)c1O` [PM-C, reference compound], the MIC (S. aureus) is reported as 1 µM (≈ 0.325 µg/mL), the MIC (P. aeruginosa) is reported as > 40 µM and the IC50 ([1]; MTT, 48 h challenge, group statement, read-out: IC50, regardless of the cancer cell line (HCT116, MCF 7)) is reported as 800 to 2250 nM. The “C-SI, mean value among the two cancer cell lines” value ([1]; mean of HCT116 and MCF 7 C-SI) was 8, the MBC ([2]; Staphylococcus aureus, ATCC25923, 24 h, read-out: MBC S. aureus) was 90 µM (≈ 29.2 µg/mL) and the “decrease in the number of vital S. aureus cells” value ([2]; increasing concentrations up to 80 μM, 24 h) was ~ 3 log. The MBC ([3]; Pseudomonas aeruginosa, ATCC10145, 24 h) was > 100 µM, the “log reduction in the number of viable CFUs, P. aeruginosa” value ([3]; highest concentration tested 100 μM, 24 h) was “did not display any antimicrobial effect” and the MBC ([3]; minimal bactericidal concentration, planktonic cells, 24 h challenge, LB medium) was >100 µM. For the same molecule, the IC50 ([4]; Homo sapiens, MCF7, 48 h, MTT, 48 h of treatment) was 1500 ± 400 nM, the “C-SI (Cancer Selectivity Index), MCF 7” value ([4]; ratio of IC50 of normal hTERT-RPE-1 to that of MCF 7, second value of the cell) was 5.5 and the IC50 ([5]; Homo sapiens, HCT-116, 48 h, MTT, 48 h of treatment) was 800 ± 300 nM. The “C-SI (Cancer Selectivity Index), HCT116” value ([5]; ratio of IC50 of normal hTERT-RPE-1 to that of HCT116, first value of the cell) was 10.4, the “morphology of treated HCT116 cells” value (HCT116 cells [6]) was “more fibroblastic and less clumped morphology” and the “AO/EB fluorescence of treated HCT116 cells (type of cell death)” value (HCT116 cells [7]) was “orange fluorescence”. The “MIC against Escherichia coli” value (Escherichia coli) was “more than 300 μM”, the IC50 [8] was 8300 ± 1900 nM and the “AO/EB staining colour of P. aeruginosa cells” value (P. aeruginosa cells) was “appeared green”.
